Measurements from patent publication US7148353B2 (priority 2003, dated 2006).
Read-outs that look alike come from different tables or passages of the source.

Columns and labels:
[1] = molecular target: peripheral benzodiazepine receptors (Rattus norvegicus, UniProt P16257); assay: biochemical; type: binding
Protocol: Compounds of the invention were assessed for their binding to the benzodiazepine receptor by the test of Speth et al. [Life Sci. 24, 351 (1979)] for central benzodiazepine receptors and LeFur et al. [Life Sci. 33, 449 (1983)] for peripheral receptors. The compounds were tested first at 1.0E-09, 1.0E-07 and 1.0E-05 M in single determination. […] The specific ligand binding to the receptor is defined as the difference between the total binding and the nonspecific binding determined in the presence of an excess of unlabelled ligand. In each experiment, the respective reference compound was tested concurrently with the test compounds in order to assess the assay suitability. It was tested at several concentrations (for IC50 value determination), and the data were compared with historical values. The assay was rendered valid if suitability criteria were met.

[2] = maze test, which tests anxiety; type: in vivo; conditions: at 10 mg/kg
Protocol: The compounds of Example 1d (also found in Example 6d), Example 22d, and Example 35d, were also tested in vivo using the maze test, which tests anxiety [Montgomery, J. Comparative and Physiological Psychology 48, 254–60 (1955); Handley et al., Naunyn-Schmiedeberg's Archives of Pharmacology 327, 1–5 (1984); Lister, Psychopharm. 92, 180–85 (1987); Pellow et al., J. Neuroscience Methods 14, 149–67 (1985); Rodgers et al., Ethology and Psychopharmacology, S. J. Cooper and C. A. Hendrie (eds), John Wiley & Sons, Ltd., 9–43 (1994); and Trullas et al., Psychopharm. 111, 323–31 (1993)]. The results of the maze test for these compounds are found in FIGS. 1a, 1b, 2a, 2b, 3a, and 3b. FIGS. 1a, 2a, and 3a are graphs of the Number of Entries in Open Arms vs. mg/kg (dose of administered compound). FIGS. 1b, 2b, and 3b plot the Percent of Time Spent in Open Arms vs. mg/kg (dose of administered compound). […] The results of the maze test are accepted by persons of skill in the art as predictive of therapeutic utility.

[3] = molecular target: central benzodiazepine receptors; assay: binding to central benzodiazepine receptors, displacement of 3H-flunitrazepam (test of Speth et al.); conditions: Table 1a
[4] = Table 1a, read-out: IC50 (nM) peripheral
[5] = Table 1b, read-out: IC50 (nM) peripheral
[6] = Table 2, read-out: IC50 (nM) peripheral

peripheral benzodiazepine receptors, sequence (P16257 whole entry): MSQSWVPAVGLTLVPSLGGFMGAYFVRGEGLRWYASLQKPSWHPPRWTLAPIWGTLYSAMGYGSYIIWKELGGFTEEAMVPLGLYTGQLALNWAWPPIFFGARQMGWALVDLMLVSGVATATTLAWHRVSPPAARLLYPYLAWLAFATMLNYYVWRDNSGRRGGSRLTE

SMILES | IC50 [1, 4] | further results
Cc1ccc(-c2nc3ccc(C)cn3c2CC(=O)C2CCCC2)cc1 | 310 nM | 
Cc1ccc(-c2nc3ccc(C)cn3c2CC(=O)C(C)C)cc1 | 820 nM | 
Cc1ccc(-c2nc3ccc(C)cn3c2CC(=O)C2CC2)cc1 | 560 nM | 
Cc1ccc(-c2nc3ccc(C)cn3c2CC(=O)c2ccsc2)cc1 | 240 nM | 
Cc1ccc(-c2nc3ccc(C)cn3c2CC(=O)c2nccs2)cc1 | 1600 nM | 
Cc1ccc(-c2nc3ccc(C)cn3c2CC(=O)c2ccco2)cc1 | 1600 nM | 
Cc1ccc(-c2nc3ccc(C)cn3c2CC(=O)c2cncnc2)cc1 | 3400 nM | 
Cc1ccc(-c2nc3ccc(C)cn3c2CC(=O)c2sc(C)nc2C)cc1 | 2000 nM | 
Cc1ccc(-c2nc3ccc(C)cn3c2CC(=O)c2ccoc2)cc1 | 400 nM | 
Cc1ccc(-c2nc3ccc(C)cn3c2CC(=O)c2c(C)nn(C)c2C)cc1 | > 10000 nM | 
Cc1ccc(-c2nc3ccc(C)cn3c2CC(=O)c2nn(-c3ccccc3)nc2C)cc1 | 7600 nM | 
Cc1ccc(-c2nc3ccc(C)cn3c2CC(=O)c2c(C)nn(-c3ccccc3)c2C)cc1 | > 10000 nM | 
Cc1ccc(-c2nc3ccc(C)cn3c2CC(=O)c2c(C)nc3cc(C)ccn23)cc1 | 210 nM | 
Cc1ccc(-c2nc3ccc(C)cn3c2CC(=O)c2cc3ccccc3s2)cc1 | 220 nM | 
Cc1ccc(-c2nc3ccc(C)cn3c2CC(=O)c2cc3c(C)nn(C)c3s2)cc1 | 2100 nM | 
Cc1ccc(-c2nc3ccc(C)cn3c2CC(=O)Cc2cccs2)cc1 | 59 nM | 
Cc1ccc(-c2nc3ccc(C)cn3c2CC(=O)C2COc3ccccc3O2)cc1 (stereo not shown) | 32 nM | 
Cc1ccc(-c2nc3ccc(C)cn3c2CC(=O)c2snnc2C)cc1 | 320 nM | 
Cc1ccc(-c2nc3ccc(C)cn3c2CC(=O)c2sccc2Cl)cc1 | 840 nM | 

SMILES | IC50 [1, 4] | further results
Cc1ccc(-c2nc3ccc(C)cn3c2CC(=O)c2cncn2C)cc1 | 3100 nM | 
Cc1ccc(-c2nc3ccc(C)cn3c2CC(=O)c2c(C)noc2C)cc1 | 1200 nM | 
Cc1ccc(-c2nc3ccc(C)cn3c2CC(=O)c2scc(S(C)(=O)=O)c2Cl)cc1 | 730 nM | 
Cc1ccc(-c2nc3ccc(C)cn3c2CC(=O)c2cc(C)nn2C)cc1 | 810 nM | 
Cc1ccc(-c2nc3ccc(C)cn3c2CC(=O)c2cc(C)on2)cc1 | 560 nM | 
Cc1ccc(-c2nc3ccc(C)cn3c2CC(=O)c2cn(C)cn2)cc1 | > 10000 nM | 
Cc1ccc(-c2nc3ccc(C)cn3c2CC(=O)c2csc(-c3cccs3)n2)cc1 | > 10000 nM | 
Cc1ccc(-c2nc3ccc(C)cn3c2CC(=O)c2sccc2C)cc1 | 230 nM | 
Cc1ccc(-c2nc3ccc(C)cn3c2CC(=O)c2nsc(Cl)c2Cl)cc1 | 1700 nM | 
Cc1ccc(-c2nc3ccc(C)cn3c2CC(=O)c2ccc(C)s2)cc1 | 1800 nM | 
Cc1ccc(-c2nc3ccc(C)cn3c2CC(=O)c2cc(C)n(C)n2)cc1 | 1300 nM | 
Cc1ccc(-c2nc3ccc(C)cn3c2CC(=O)c2nccn2C)cc1 | > 10000 nM | 
CCn1nc(C)c(Br)c1C(=O)Cc1c(-c2ccc(C)cc2)nc2ccc(C)cn12 | 2100 nM | 
Cc1ccc(-c2nc3ccc(C)cn3c2CC(=O)c2nnn(C)c2C)cc1 | > 10000 nM | 
CSc1ccc(C(=O)Cc2c(-c3ccc(C)cc3)nc3ccc(C)cn23)s1 | 6000 nM | 
Cc1ccc(-c2nc3ccc(C)cn3c2CC(=O)c2cn(-c3cccc(C)n3)cn2)cc1 | 6600 nM | 
Cc1ccc(-c2nc3ccc(C)cn3c2CC(=O)CCc2ccccc2)cc1 | 290 nM | 
Cc1cc(Cl)cn2c(CC(=O)c3ccoc3)c(-c3ccc(Cl)cc3)nc12 |  | IC50 [1, 5]: 350 nM
Cc1cc(Cl)cn2c(CC(=O)c3cccs3)c(-c3ccc(Cl)cc3)nc12 |  | IC50 [1, 5]: 590 nM

SMILES | IC50 [1, 4] | further results
O=C(Cc1c(-c2ccc(Cl)cc2)nc2ccccn12)c1cccs1 |  | IC50 [1, 5]: 2600 nM
O=C(Cc1c(-c2ccc(Cl)cc2)nc2ccc(Cl)cn12)c1cccs1 |  | IC50 [1, 5]: 290 nM
COc1ccc(-c2nc3ccc(C)cn3c2CC(=O)c2cc(C)nn2C)cc1 |  | IC50 [1, 5]: 2300 nM
COc1ccc(-c2nc3ccc(C)cn3c2CC(=O)c2cccs2)cc1 |  | IC50 [1, 5]: 2400 nM
Cc1ccc(-c2nc3ccc(C)cn3c2C2CCCNC2=O)cc1 (stereo not shown) |  | IC50 [1, 6]: > 10000 nM
Cc1ccc(-c2nc3ccc(C)cn3c2C2CC=CCN(C)C2=O)cc1 (stereo not shown) |  | IC50 [1, 6]: 210 nM
Cc1ccc(-c2nc3ccc(C)cn3c2CC(=O)c2cccs2)cc1 [Example 1d, 2-(6-Methyl-2-p-tolyl-imidazo[1,2-a]pyridin-3-yl)-1-thiophen-2-yl-ethanone] |  | maze test activity (Number of Entries in Open Arms, Percent of Time Spent in Open Arms) [2]: statistically significant activity
CC(=O)Cc1c(-c2ccc(C)cc2)nc2ccc(C)cn12 [Example 2d, 1-(6-Methyl-2-p-tolyl-imidazo[1,2-a]pyridin-3-yl)-propan-2-one] | 231 nM | IC50 [3]: 439 nM
Cc1ccc(-c2nc3ccc(C)cn3c2CC(=O)c2ccc(Cl)cc2)cc1 [Example 3d, 1-(4-Chloro-phenyl)-2-(6-methyl-2-p-tolyl-imidazo[1,2-a]pyridin-3-yl)-ethanone] |  | IC50 ([1]; IC50 (nM) peripheral, Table 1a): 594 nM; IC50 [3]: 4060 nM
Cc1ccc(-c2nc3ccc(C)cn3c2CC(=O)c2ccccc2)cc1 [Example 4d, 2-(6-Methyl-2-p-tolyl-imidazo[1,2-a]pyridin-3-yl)-1-phenyl-ethanone] |  | IC50 ([1]; IC50 (nM) peripheral, Table 1a): 386 nM; IC50 [3]: 1750 nM
CCCCCC(=O)Cc1c(-c2ccc(C)cc2)nc2ccc(C)cn12 [Example 5d, 1-(6-Methyl-2-p-tolyl-imidazo[1,2-a]pyridin-3-yl)-heptan-2-one] | 269 nM | IC50 [3]: 420 nM
COc1ccsc1C(=O)Cc1c(-c2ccc(C)cc2)nc2ccc(C)cn12 [Example 22d, 1-(3-Methoxy-thiophen-2-yl)-2-(6-methyl-2-p-tolyl-imidazo[1,2-a]pyridin-3-yl)-ethanone] |  | maze test activity (Number of Entries in Open Arms, Percent of Time Spent in Open Arms) [2]: statistically significant activity
Cc1ccc(-c2nc3ccc(C)cn3c2CC(=O)c2cccs2)cc1 [drawing 97] | 153 nM | 
COc1ccsc1C(=O)Cc1c(-c2ccc(C)cc2)nc2ccc(C)cn12 [drawing 131] | 180 nM | 
Cc1ccc(-c2nc3ccc(C)cn3c2C2CCCN(C)C2=O)cc1 (stereo not shown) [drawing 151] |  | IC50 [1, 6]: 1240 nM
Cc1ccc(-c2nc3ccc(C)cn3c2C2CCCN(C)C2=O)cc1 (stereo not shown) [drawing 155] |  | IC50 [1, 6]: 1500 nM
Cc1ccc(-c2nc3ccc(C)cn3c2C2CCCN(C)C2=O)cc1 (stereo not shown) [drawing 156] |  | IC50 [1, 6]: > 10000 nM
Cc1ccc(-c2nc3ccc(C)cn3c2CC(=O)CC(C)C)cc1 [—CH2CH(CH3)2] | 820 nM | IC50 [3]: > 10000 nM
